Measured values reported in US20260306525A1, “COMBINATION THERAPY GLUCOCORTICOIDS AND GINSENOSIDE” (FYTAGORAS B.V., priority 2023, published 2026).

Target: T1, GR (Homo sapiens, UniProt P04150)
T1 sequence (P04150 1-777): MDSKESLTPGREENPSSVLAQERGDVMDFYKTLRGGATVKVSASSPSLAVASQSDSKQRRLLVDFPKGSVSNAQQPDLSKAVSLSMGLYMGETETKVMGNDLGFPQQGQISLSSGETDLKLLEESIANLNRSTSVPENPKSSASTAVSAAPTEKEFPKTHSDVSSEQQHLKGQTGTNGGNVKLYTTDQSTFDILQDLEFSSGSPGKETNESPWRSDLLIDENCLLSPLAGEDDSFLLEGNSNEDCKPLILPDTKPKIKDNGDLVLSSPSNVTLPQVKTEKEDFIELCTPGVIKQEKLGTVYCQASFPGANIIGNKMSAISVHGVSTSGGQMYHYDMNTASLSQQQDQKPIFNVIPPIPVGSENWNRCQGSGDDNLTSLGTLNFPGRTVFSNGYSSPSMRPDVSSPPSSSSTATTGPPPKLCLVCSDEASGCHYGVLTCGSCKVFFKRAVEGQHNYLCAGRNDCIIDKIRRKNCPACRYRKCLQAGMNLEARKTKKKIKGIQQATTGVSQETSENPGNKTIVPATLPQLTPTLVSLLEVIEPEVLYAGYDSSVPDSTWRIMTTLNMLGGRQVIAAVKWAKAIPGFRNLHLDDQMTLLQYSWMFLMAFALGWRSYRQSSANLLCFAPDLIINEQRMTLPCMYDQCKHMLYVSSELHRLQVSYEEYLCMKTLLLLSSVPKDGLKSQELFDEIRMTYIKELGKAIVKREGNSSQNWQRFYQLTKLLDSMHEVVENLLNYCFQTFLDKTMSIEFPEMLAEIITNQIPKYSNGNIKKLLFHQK
Test: PolarScreen Glucocorticoid Receptor competitive binding assay
Set-up: followed by GR Full Length (partially purified receptor in storage buffer); purchased ThermoFisher Scientific
Description: To determine the relative binding affinities of the different compounds for the human GR in vitro, the PolarScreen™ Glucocorticoid Receptor Competitor Assay Kit (ThermoFisher Scientific, Waltham, MA, USA) was used following the manufacturer's instructions. Briefly, test compounds were first dissolved in DMSO to a 10 mM stock concentration and further diluted in GR buffer (100 mM potassium phosphate (pH 7.4), 200 mM Na2MoO4, 1 mM EDTA, and 20% DMSO). Serial dilutions of the compounds were transferred to a Corning® black 384-well plate and Fluormone GS red™ was added, followed by GR Full Length (partially purified receptor in storage buffer). The plate was incubated for 4 h at RT in the dark and fluorescence polarization was measured with a CLARIOStar Microplate Reader (BMG Labtech, Ortenberg, Germany). Obtained values were normalized to the assay maximum (no ligand) and minimum control (10 µM dexamethasone), and relative percentages of polarization were determined. Dose-response curves were fitted enabling the calculations of IC50 values for each compound.

CC(C)=CCC[C@](C)(O[C@@H]1O[C@H](CO)[C@@H](O)[C@H](O)[C@H]1O)[C@H]1CC[C@]2(C)[C@@H]1[C@H](O)C[C@@H]1[C@@]3(C)CC[C@H](O)C(C)(C)[C@@H]3[C@@H](O[C@@H]3O[C@H](CO)[C@@H](O)[C@H](O)[C@H]3O)C[C@]12C [Rg1, (3β,6α, 12β)-3,12-Dihydroxydammar-24-ene-6,20-diyl bis-β-D-glucopyranoside]
IC50 (fluorescence polarization, 4 h at RT): 22 µM | relative GR binding affinity, times lower than beclomethasone (vs beclomethasone): ~ 4,000 times
